Where only a bound is given, the exact number is not on record here.

Series [1] in a line: Oral bioavailability in Sprague-Dawley rat at 10 mg/kg. Format: ADME, organism-based. The settings on record: in vivo.
The nature of series [2]: Tmax in Sprague-Dawley rat at 10 mg/kg, po. The settings on record: in vivo. Further details: dose 10 mg/kg, route oral. It counts as ADME, organism-based.
Series [3] is described as follows: Cmax in Sprague-Dawley rat at 10 mg/kg, po. The following applies: in vivo. Further details: dose 10 mg/kg, route oral. Format: ADME, organism-based.
The nature of series [4]: AUC (0 to last) in Sprague-Dawley rat at 10 mg/kg, po. It counts as ADME, organism-based. The settings on record: plasma. Further details: time 0 - last, dose 10 mg/kg, route oral.
Series [5] can be described thus: Half life in Sprague-Dawley rat at 10 mg/kg, po. Further details: dose 10 mg/kg, route oral. Format: ADME, organism-based. The settings on record: in vivo.
A short description of series [6]: Volume of distribution in Sprague-Dawley rat at 1 mg/kg, iv. Further details: dose 1 mg/kg, route intravenous. The settings on record: in vivo. Format: ADME, organism-based.
Series [7] in a line: Half life in Sprague-Dawley rat at 1 mg/kg, iv. Format: ADME, organism-based. Further details: dose 1 mg/kg, route intravenous. The following applies: in vivo.
Series [8] in a line: Clearance in Sprague-Dawley rat at 1 mg/kg, iv. Further details: dose 1 mg/kg, route intravenous. It counts as ADME, organism-based. The settings on record: in vivo.
Series [9] deals with Dihydroorotate dehydrogenase (quinone), mitochondrial (Homo sapiens, UniProt Q02127). Briefly: Inhibition of N-terminal His10-tagged human DHODH (Met30 to Arg396) expressed in Escherichia coli BL21 (DE3) using dihydroorotate as substrate measured every 30 secs for 6 mins by DCIP dye-based assay.
Chain of Dihydroorotate dehydrogenase (quinone), mitochondrial (Q02127 whole entry): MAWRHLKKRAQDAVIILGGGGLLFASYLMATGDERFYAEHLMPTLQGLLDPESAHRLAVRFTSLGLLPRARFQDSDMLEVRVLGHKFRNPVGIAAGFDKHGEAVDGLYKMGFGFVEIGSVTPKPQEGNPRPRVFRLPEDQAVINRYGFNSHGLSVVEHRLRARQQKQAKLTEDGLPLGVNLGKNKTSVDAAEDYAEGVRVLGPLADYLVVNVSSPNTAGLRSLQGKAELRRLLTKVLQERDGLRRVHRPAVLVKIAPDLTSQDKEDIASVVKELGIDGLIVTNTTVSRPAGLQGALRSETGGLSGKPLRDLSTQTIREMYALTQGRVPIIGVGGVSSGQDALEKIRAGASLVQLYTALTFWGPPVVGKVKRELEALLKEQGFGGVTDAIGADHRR
Series [10] concerns the target T1, Dihydroorotate dehydrogenase (Plasmodium falciparum, UniProt Q54A96).
T1 sequence (Q54A96 whole entry): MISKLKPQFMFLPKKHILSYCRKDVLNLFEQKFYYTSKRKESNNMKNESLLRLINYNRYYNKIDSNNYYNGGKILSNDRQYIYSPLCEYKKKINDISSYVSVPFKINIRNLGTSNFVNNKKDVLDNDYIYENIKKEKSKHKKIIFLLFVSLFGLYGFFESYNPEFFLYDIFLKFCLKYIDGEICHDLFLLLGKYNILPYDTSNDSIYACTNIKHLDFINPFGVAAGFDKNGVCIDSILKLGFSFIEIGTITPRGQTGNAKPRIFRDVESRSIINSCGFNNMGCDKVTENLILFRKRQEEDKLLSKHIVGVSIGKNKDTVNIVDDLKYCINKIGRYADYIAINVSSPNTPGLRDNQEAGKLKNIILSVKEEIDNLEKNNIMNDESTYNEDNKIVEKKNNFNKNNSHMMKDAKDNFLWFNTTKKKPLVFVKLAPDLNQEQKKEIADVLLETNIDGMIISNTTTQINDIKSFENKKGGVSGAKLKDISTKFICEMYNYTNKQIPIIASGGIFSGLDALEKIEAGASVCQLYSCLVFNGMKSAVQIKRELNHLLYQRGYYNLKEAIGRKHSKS
Briefly: Inhibition of Plasmodium falciparum DHODH (Phe158 to Ser569) expressed in Escherichia coli BL21 using dihydroorotate as substrate measured every 30 secs for 6 mins by DCIP dye-based assay.

Series [11] deals with Plasmodium falciparum. Briefly: microbe, parasite or virus in culture. The following applies: Dd2, 72 h.
Description: Antiplasmodial activity against chloroquine-resistant Plasmodium falciparum Dd2 infected in erythrocytes assessed as parasite growth inhibition after 72 hrs by SYBR green 1 dye-based fluorometric analysis
The test system of series [12] is Plasmodium falciparum. Briefly: microbe, parasite or virus in culture. The settings on record: 3D7, 72 h.
Description: Antiplasmodial activity against chloroquine-sensitive Plasmodium falciparum 3D7 infected in erythrocytes assessed as parasite growth inhibition after 72 hrs by SYBR green 1 dye-based fluorometric analysis

As to `CCOC(=O)C1=C(Nc2ccc3ccccc3c2)OCC1=O`, in series [1], the bioavailability (commonly the share of a dose that reaches the circulation, judged against a reference dose that is usually intravenous) stood at 40%. Moreover, in series [2], the Tmax (in general, the time at which the peak concentration occurs) is 17.4 min. In series [3], the concentration peaked (Cmax) at 609 ng/mL. The AUC(0-t) – broadly, exposure summed from dosing to a finite time, without extrapolation to infinity – in [4] was determined as 791 ng·h/mL. For the same molecule, the half-life – broadly, the time in which the quantity being followed falls by half – is 45 min in [5] and 15.6 min in [7]. Besides, the Vd (in general, the apparent volume that relates the amount in the body to the concentration in plasma or blood) in series [6] worked out at 1.91 L/kg. The clearance (commonly the rate of elimination divided by the concentration) in series [8] was 84.7 mL/min/kg. For the same molecule, the IC50 – broadly, the midpoint of a concentration-inhibition curve – in [9] is over 50000 nM; in [10] it was 6 nM; in series [11], 18 nM; in series [12], 15 nM.
In turn, `CCOC(=O)C1=C(Nc2ccc3ccccc3c2)SCC1=O` returned a bioavailability in [1] of 3.02%. Besides, the time to peak (Tmax) in series [2] turned out to be 15 min. In series [3], the highest level (Cmax) was 25.5 ng/mL. In addition, the area under the curve AUC(0-t) in [4] came out at 39.3 ng·h/mL. The values for the half-life in series [5] and in series [7] were 154 min and 18 min, respectively. The molecule also had a Vd in series [6] of 3.35 L/kg. In [8], this molecule gave a clearance of 129 mL/min/kg. The half-inhibitory concentration (IC50) is over 50000 nM in [9], 20 nM in [10], 57 nM in series [11] and 77 nM in [12].
For the molecule `CCCOC(=O)C1=C(Nc2ccc(C)c(C)c2)SCC1=O`, the 50% inhibitory concentration (IC50) was 11600 nM in series [9], 4030 nM in [10], 1690 nM in series [11] and 2110 nM in [12].

Values taken from ChEMBL document CHEMBL2429811, “Novel selective and potent inhibitors of malaria parasite dihydroorotate dehydrogenase: discovery and optimization of dihydrothiophenone derivatives” (J Med Chem, 2013).
